Values after ≈ are worked out from the molar mass of the structure shown. Structures can show the parent of a compound that is named as a salt.
Key:
[1] = system: Bacteroides fragilis sp. vulgatis 1563; test: Agar dilution susceptibility of anaerobic bacteria (Chart 1); type: cell-based
[2] = system: Eubacterium aerofaciens 1235; test: as above; type: cell-based; details: Collinsella aerofaciens, 1235, 24 h, read-out: 24 Hr. MIC
[3] = system: Clostridium septicum 1128; test: as above; type: cell-based; details: Clostridium septicum, 1128, 24 h, 37° C.
Experimental: The susceptibility of anaerobic bacteria, both gram positive and gram negative, to a representative number of the novel compounds of this application was determined using the agar dilution method. The bacteria used were isolated from patients hospitalized at the Indiana Univerisity Medical Center. The isolates were identified in the anaerobe laboratory of the Medical Center by the criteria established by Dowell et al., Laboratory Methods in Anaerobic Bacteriology. Public Health Serv. Publ. NO. 1803 (1968) [Center for Disease Control, Atlanta, Ga.]; and by Smith et al., The Pathogenic Anaerobic Bacteria, pages 96- 136 (1968) [Charles C. Thomas, Publisher, Springfield, Ill.]. All the organisms were maintained in chopped meat glucose medium (Scott Labs) at room temperature.
The method used for the agar dilution tests was based on the studies of Sutter et al., Antimicrob. Ag. Chemother. 3, 188-193 (1973). The strains of anaerobic bacteria were grown in 16×× 120 mm. tubes for 16 to 18 hours in Thioglycolate medium without indicator-- 135C (Becton, Dickinson and Co.), to which was added 5 mcg. of hemin per milliliter prior to autoclaving, plus 1 mg. of sodium bicarbonate and 0.1 mcg. of filter-sterilized menadione per milliliter after autoclaving. The strains were adjusted to the turbidity of the No. 1 McFarland standard in Thioglycolate medium without indicator-- 135C containing an additional 0.13 percent Bacto-agar (Difco). Each strain was then applied to the surface of the petri plate (100 mm× 15 mm.) by means of a replicator.
For the agar dilution studies, two-fold dilutions of the test compounds were prepared in deionized water to which was then added laked sheep blood and filter-sterilized menadione so the concentrations after the agar dilution were 5 percent and 10 mcg./ml. respectively. An equal volume of double strength Brucella agar (Becton, Dickinson and Co.) was mixed with each dilution in a water bath held at 50° C. and then poured onto the petri dishes.
All of the procedures were done inside a plastic glove box, except for the incubation of the growth tubes and the pouring of the plates. After the plates hardened, they were put inside the glove box for a minimum of 2 hours before they were inoculated. Generally, the glove box procedures of Aranki et al., Applied Microbiology 17, 568-576 (1969), were followed, but the following modifications were used. Dry materials were introduced into the glove box by evacuating the lock to 28 inches of mercury and filling once with nitrogen gas, followed by evacuating in the same manner and filling with an 80 percent nitrogen plus 10 percent CO2 plus 10 percent hydrogen gas mixture. Liquid media and agar plates were introduced into the glove box by evacuating the lock to 10 inches of mercury and filling with gas four times. The nitrogen gas was used to fill the lock for the first two cycles of evacuation, with the gas mixture described above used for the final two fillings.
All the plates were incubated at 37° C. in Gas Pak jars (Becton, Dickinson and Co.) containing palladium-coated alumina catalysts (reactivated after each use). The results of the agar dilution tests were read after about 24 hours of incubation. The minimum inhibitory concentration (MIC) was recorded as the lowest concentration of test compound at which there was no growth.
The test compounds are identified by the number of the example describing their preparation. The antibiotics clindamycin (C), and erythromycin (E) were also run simultaneously with the novel compounds of this application,for comparison purposes, and the results are included in Chart 1 below.

[4] = system: Bacteroides melaninogenicus 2736; test: as above; type: cell-based; details: 2736, 24 h, read-out: 24 Hr. MIC
[5] = system: Bacteroides fragilis sp. fragilis 1451; test: as above; type: cell-based; details: Bacteroides fragilis, 24 h, read-out: 24 Hr. MIC
[6] = system: Bacteroides fragilis sp. fragilis 103; test: as above; type: cell-based
[7] = system: Fusobacterium necrophorum 6054A; test: as above; type: cell-based; details: Fusobacterium necrophorum, 6054A, 24 h, read-out: 24 Hr. MIC
[8] = system: Bacteroides fragilis sp. fragilis 112; test: as above; type: cell-based
[9] = system: Bacteroides fragilis sp. fragilis 1877; test: as above; type: cell-based
[10] = system: Bacteroides fragilis sp. fragilis 107; test: as above; type: cell-based; details: Bacteroides fragilis, 24 h, read-out: 24 Hr. MIC
[11] = system: Bacteroides fragilis sp. fragilis 104; test: as above; type: cell-based; details: Bacteroides fragilis, 24 h, read-out: 24 Hr. MIC
[12] = system: Bacteroides fragilis sp. fragilis 111; test: as above; type: cell-based
[13] = system: Bacteroides fragilis sp. fragilis 113; test: as above; type: cell-based
[14] = system: Bacteroides fragilis sp. thetaiotaomicron 1900A; test: as above; type: cell-based
[15] = system: Bacteroides fragilis sp. fragilis 62; test: as above; type: cell-based
[16] = system: Fusobacterium symbiosum 1470; test: as above; type: cell-based; details: Fusobacterium, 1470, 24 h, read-out: 24 Hr. MIC
[17] = system: Actinomyces israelii W855; test: as above; type: cell-based; details: 24 h, agar dilution, 37° C., read-out: 24 Hr. MIC
[18] = system: Bacteroides melaninogenicus 1856/28; test: as above; type: cell-based; details: Prevotella intermedia, 1856/28, 24 h, read-out: 24 Hr. MIC
[19] = system: Bacteroides fragilis sp. fragilis 9; test: as above; type: cell-based
[20] = system: Bacteroides corrodens 1874; test: as above; type: cell-based; details: Eikenella corrodens, 1874, 24 h, read-out: 24 Hr. MIC
[21] = system: Bacteroides fragilis sp. fragilis 110; test: as above; type: cell-based
[22] = system: Peptostreptococcus anaerobius 1428; test: as above; type: cell-based; details: Peptostreptococcus anaerobius, 1428, 24 h, read-out: 24 Hr. MIC
[23] = system: Bacteroides fragilis sp. fragilis 1936B; test: as above; type: cell-based; details: Bacteroides fragilis, 24 h, read-out: 24 Hr. MIC
[24] = system: Bacteroides fragilis sp. thetaiotaomicron 1438; test: as above; type: cell-based
[25] = system: Bacteroides fragilis sp. fragilis 1470; test: as above; type: cell-based
[26] = system: Bacteroides fragilis sp. fragilis 2; test: as above; type: cell-based; details: Bacteroides fragilis, 24 h, read-out: 24 Hr. MIC
[27] = system: Bacteroides vulgatis 1211; test: as above; type: cell-based; details: Bacteroides, 1211, 24 h, read-out: 24 Hr. MIC
[28] = system: Clostridium perfringens 81; test: microbe, parasite or virus in culture; type: cell-based; details: Clostridium perfringens, 81, 24 h, read-out: 24 Hr. MIC, agar dilution, 37° C.
[29] = system: Peptococcus asaccharolyticus 1302; test: Agar dilution susceptibility of anaerobic bacteria (Chart 1); type: cell-based; details: Peptoniphilus asaccharolyticus, 1302, 24 h, read-out: 24 Hr. MIC
[30] = system: Bacteroides fragilis sp. fragilis 1874; test: as above; type: cell-based
[31] = system: Peptococcus prevoti 1281; test: as above; type: cell-based; details: 24 h, read-out: 24 Hr. MIC, agar dilution, 37° C.
[32] = system: Peptostreptococcus intermedius 1264; test: as above; type: cell-based; details: Peptostreptococcus, 1264, 24 h, read-out: 24 Hr. MIC
[33] = system: Propionibacterium acnes 79; test: as above; type: cell-based; details: Cutibacterium acnes, 79, 24 h, read-out: 24 Hr. MIC
[34] = system: Bacteroides fragilis sp. fragilis 108; test: as above; type: cell-based
[35] = system: Bacteroides fragilis sp. fragilis 106; test: as above; type: cell-based
[36] = system: Salmonella typhimurium; test: Control of infections caused by Salmonella typhimurium in chickens (Chart 2); type: in vivo; details: 60 mg./kg. subcutaneous, day-old chicks, 5 per group, 6 days observation
Experimental: The efficacy of the novel compounds in the control of infections caused by Salmonella typhimurium in chickens was evaluated in the following manner. The test was carried out using day-old chicks weighing approximately 35 g. each. The chicks were divided into groups of 5 chicks per each dosage level. A portion of the chicks received the test compound which was suspended in 0.2 ml. of polyethylene glycol 200 and administered subcutaneously in the neck. […] All the chicks were challenged with a 1:200 dilution of a culture of the organism, 0.1 ml. of the dilution being injected into each chick in the leg intramuscularly. […] The test compounds are identified in the same manner as set forth in experiment 1. In the chart, column 1 lists the compounds tested; column 2, the dosage of test compound in mg./kg.; and column 3, the survival ratio.

[37] = Bacteroides fragilis, 24 h, read-out: 24 Hr. MIC

In the case of `CC[C@H]1OC(=O)[C@H](C)[C@@H](O[C@H]2C[C@@](C)(OC)[C@@H](O)[C@H](C)O2)[C@H](C)[C@@H](O[C@@H]2O[C@H](C)C[C@H](N(C)C)[C@H]2O)[C@](C)(O)C[C@@H](C)C(=O)[C@H](C)[C@@H](O)[C@]1(C)O` [E, erythromycin, reference compound], the MIC [1, 37] was 1 µg/mL (≈ 1.36 µM), the MIC [2] was ≤ 0.5 µg/mL and the MIC [3] was 1 µg/mL (≈ 1.36 µM). For the same compound, the MIC [4] was 1 µg/mL (≈ 1.36 µM), the MIC [5] was 0.5 µg/mL (≈ 0.681 µM) and the MIC [6, 37] was 4 µg/mL (≈ 5.45 µM). It also gave an MIC [7] of 8 µg/mL (≈ 10.9 µM), an MIC [8, 37] of 32 µg/mL (≈ 43.6 µM) and an MIC [9, 37] of 2 µg/mL (≈ 2.73 µM). The MIC [10] was 2 µg/mL (≈ 2.73 µM), the MIC [11] was 2 µg/mL (≈ 2.73 µM) and the MIC [12, 37] was 2 µg/mL (≈ 2.73 µM). For the same compound, the MIC [13, 37] was 2 µg/mL (≈ 2.73 µM), the MIC [14, 37] was > 64 µg/mL and the MIC [15, 37] was 8 µg/mL (≈ 10.9 µM). For the same compound, the MIC [16] was ≤ 0.5 µg/mL, the MIC [17] was ≤ 0.5 µg/mL and the MIC [18] was 4 µg/mL (≈ 5.45 µM). The MIC [19, 37] was 4 µg/mL (≈ 5.45 µM), the MIC [20] was ≤ 0.5 µg/mL and the MIC [21, 37] was 16 µg/mL (≈ 21.8 µM). For the same compound, the MIC [22] was ≤ 0.5 µg/mL, the MIC [23] was 2 µg/mL (≈ 2.73 µM) and the MIC [24, 37] was 1 µg/mL (≈ 1.36 µM). For the same compound, the MIC [25, 37] was 8 µg/mL (≈ 10.9 µM), the MIC [26] was 4 µg/mL (≈ 5.45 µM) and the MIC [27] was 1 µg/mL (≈ 1.36 µM). For the same compound, the MIC [28] was 1 µg/mL (≈ 1.36 µM), the MIC [29] was 1 µg/mL (≈ 1.36 µM) and the MIC [30, 37] was 0.5 µg/mL (≈ 0.681 µM). The MIC [31] was > 128 µg/mL, the MIC [32] was ≤ 0.5 µg/mL and the MIC [33] was ≤ 0.5 µg/mL. The MIC [34, 37] was 2 µg/mL (≈ 2.73 µM) and the MIC [35, 37] was 4 µg/mL (≈ 5.45 µM).
In the case of `CCOC(=O)C(=O)Nc1c(C#N)c(-c2ncc([N+](=O)[O-])n2C)nn1C` [Example 3, N-[4-Cyano-1-methyl-3-(1-methyl-5-nitroimidazol-2-yl)pyrazol-5-yl]oxamic acid, ethyl ester, potassium salt], the “24 Hr. MIC” value ([1]; agar dilution, 37° C., Bacteroides fragilis sp. vulgatis 1563, potassium salt) was 0.25 µg/mL, the “24 Hr. MIC” value ([6]; agar dilution, 37° C., Bacteroides fragilis sp. fragilis 103, potassium salt) was 0.125 µg/mL and the “24 Hr. MIC” value ([8]; agar dilution, 37° C., Bacteroides fragilis sp. fragilis 112, potassium salt) was 0.25 µg/mL. For the same compound, the “24 Hr. MIC” value ([9]; agar dilution, 37° C., Bacteroides fragilis sp. fragilis 1877, potassium salt) was 0.25 µg/mL, the “24 Hr. MIC” value ([12]; agar dilution, 37° C., Bacteroides fragilis sp. fragilis 111, potassium salt) was 0.25 µg/mL and the “24 Hr. MIC” value ([13]; agar dilution, 37° C., Bacteroides fragilis sp. fragilis 113, potassium salt) was 0.5 µg/mL. The “24 Hr. MIC” value ([14]; agar dilution, 37° C., Bacteroides fragilis sp. thetaiotaomicron 1900A, potassium salt) was 0.5 µg/mL, the “24 Hr. MIC” value ([15]; agar dilution, 37° C., Bacteroides fragilis sp. fragilis 62, potassium salt) was 0.5 µg/mL and the “Survival Ratio” value ([36]; potassium salt) was 3/5. For the same compound, the “24 Hr. MIC” value ([19]; agar dilution, 37° C., Bacteroides fragilis sp. fragilis 9, potassium salt) was 0.25 µg/mL, the “24 Hr. MIC” value ([21]; agar dilution, 37° C., Bacteroides fragilis sp. fragilis 110, potassium salt) was 0.5 µg/mL and the “24 Hr. MIC” value ([24]; agar dilution, 37° C., Bacteroides fragilis sp. thetaiotaomicron 1438, potassium salt) was 0.5 µg/mL. The “24 Hr. MIC” value ([25]; agar dilution, 37° C., Bacteroides fragilis sp. fragilis 1470, potassium salt) was 0.25 µg/mL, the “24 Hr. MIC” value ([30]; agar dilution, 37° C., Bacteroides fragilis sp. fragilis 1874, potassium salt) was 0.25 µg/mL and the “24 Hr. MIC” value ([34]; agar dilution, 37° C., Bacteroides fragilis sp. fragilis 108, potassium salt) was 0.25 µg/mL. The “24 Hr. MIC” value ([35]; agar dilution, 37° C., Bacteroides fragilis sp. fragilis 106, potassium salt) was 0.25 µg/mL.
For `Cn1nc(-c2ncc([N+](=O)[O-])n2C)c(C#N)c1NC(=O)C(=O)NO` [Example 9, N-[4-Cyano-1-methyl-3-(1-methyl-5-nitroimidazol-2-yl)pyrazol-5-yl]-N'-hydroxyoxamide], the “Survival Ratio” value [36] was 4/5.

Reference: patent US4029671A, “3-[(5-nitro-2-imidazolyl)pyrazol-5-yl]oxamic acid derivatives” (priority 1976, dated 1977)
